The nature of assay [1]: Luminescence Cell-Based Dose Confirmation HTS to Identify Inhibitors of Platelet Dense Granule Release. [Related pubchem assays: 1663 (Primary HTS), 1678 (Summary of Project)]. The assay is classed as functional.
Assay [2] has as its target Luciferin 4-monooxygenase (Photinus pyralis, UniProt P08659). The experiment in a line: inhibition of purified Photinus pyralis luciferase – biochemical, luminescence, dose response (AID 1891).
The nature of another assay: cells. In kind it is functional.
The target of assay [3] is FAD-linked sulfhydryl oxidase ALR (Homo sapiens, UniProt P55789). In words: ALR-catalysed DTT oxidation blockers – biochemical, H2O2 detection, luminescence, cherry-pick, dose response (AID 493248).
FAD-linked sulfhydryl oxidase ALR, sequence (P55789 whole entry): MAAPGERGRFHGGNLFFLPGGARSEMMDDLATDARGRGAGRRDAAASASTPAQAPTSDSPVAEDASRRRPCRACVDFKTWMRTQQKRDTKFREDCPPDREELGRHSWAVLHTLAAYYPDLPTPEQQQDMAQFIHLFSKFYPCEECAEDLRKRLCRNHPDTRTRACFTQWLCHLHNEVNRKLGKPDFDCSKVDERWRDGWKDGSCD
Assay [4] can be described thus: NIH3T3 cell viability loss – ATP luminescence, mouse fibroblasts, counter-screen, dose response (AID 2010).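 Also: cells exposed to compound for about 90 hours before reading.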 In kind it is functional, cell-based. On the technique in general: A counterscreen serves to expose hits that act by an unwanted route or on another target.
Assay [5] is described as follows: Trypanosoma cruzi growth suppression in host cells – NIH3T3 host cells, beta-gal luminescence, confirmation (AID 2044).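 Also: intracellular parasites grown in NIH/3T3 mouse fibroblasts as host cells; luminescent beta-galactosidase reporter signal from transgenic T. cruzi replicating inside host cells; inhibitors lower the luminescence signal.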 The assay is classed as functional, cell-based.
In assay [6] the target is T1, Ubiquitin-conjugating enzyme E2 N (Homo sapiens, UniProt P61088).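 Also: Dose-response confirmation in a TR-FRET assay detecting UBC13-driven polyubiquitin chain formation, inhibition measured.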
T1 sequence (P61088 whole entry): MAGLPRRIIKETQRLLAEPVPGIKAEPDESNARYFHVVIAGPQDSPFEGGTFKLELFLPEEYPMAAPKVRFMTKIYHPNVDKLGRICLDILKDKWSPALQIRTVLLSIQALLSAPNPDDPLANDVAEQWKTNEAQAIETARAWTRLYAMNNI
In kind it is functional.

A further assay deals with Cytochrome P450 3A4 (Homo sapiens, UniProt P08684). The settings on record: Potency.
Cytochrome P450 3A4, sequence (P08684 whole entry): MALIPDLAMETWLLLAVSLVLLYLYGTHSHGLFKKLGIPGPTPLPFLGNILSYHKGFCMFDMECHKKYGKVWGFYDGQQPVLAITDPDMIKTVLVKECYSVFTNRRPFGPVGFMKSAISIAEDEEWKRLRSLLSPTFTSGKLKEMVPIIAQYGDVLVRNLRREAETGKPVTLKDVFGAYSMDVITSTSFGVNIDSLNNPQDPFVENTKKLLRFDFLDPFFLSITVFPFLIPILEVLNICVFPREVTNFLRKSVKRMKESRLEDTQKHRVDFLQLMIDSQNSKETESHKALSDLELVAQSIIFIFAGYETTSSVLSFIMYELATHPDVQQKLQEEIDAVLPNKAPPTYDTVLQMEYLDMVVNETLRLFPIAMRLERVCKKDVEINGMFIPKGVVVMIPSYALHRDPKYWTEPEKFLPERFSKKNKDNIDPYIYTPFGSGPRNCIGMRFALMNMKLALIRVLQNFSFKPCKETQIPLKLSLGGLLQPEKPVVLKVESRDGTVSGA
Assay [7] can be described thus: intracellular Trypanosoma cruzi inhibitors in host cells – cell-based, plate reader, cherry-pick samples, set 3, dose response (AID 651818).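 Also: compounds incubated with infected cells for about four days.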 The assay is classed as functional.
Assay [8] addresses T2, Corticotropin-releasing factor receptor 2/Corticotropin-releasing factor-binding protein (Homo sapiens, UniProt P24387+Q13324).
T2 sequence (Q13324 whole entry): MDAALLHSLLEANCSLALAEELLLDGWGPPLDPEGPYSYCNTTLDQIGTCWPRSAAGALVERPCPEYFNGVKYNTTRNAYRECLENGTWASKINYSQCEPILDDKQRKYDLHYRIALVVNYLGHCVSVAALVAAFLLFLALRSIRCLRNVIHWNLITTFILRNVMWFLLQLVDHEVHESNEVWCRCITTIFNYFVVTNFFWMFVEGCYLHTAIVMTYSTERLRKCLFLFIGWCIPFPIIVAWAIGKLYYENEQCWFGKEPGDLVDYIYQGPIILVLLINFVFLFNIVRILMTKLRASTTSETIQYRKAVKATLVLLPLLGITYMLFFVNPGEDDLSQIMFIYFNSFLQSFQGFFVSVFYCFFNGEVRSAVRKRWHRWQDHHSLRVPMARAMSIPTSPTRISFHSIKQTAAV
T2 sequence (P24387 whole entry): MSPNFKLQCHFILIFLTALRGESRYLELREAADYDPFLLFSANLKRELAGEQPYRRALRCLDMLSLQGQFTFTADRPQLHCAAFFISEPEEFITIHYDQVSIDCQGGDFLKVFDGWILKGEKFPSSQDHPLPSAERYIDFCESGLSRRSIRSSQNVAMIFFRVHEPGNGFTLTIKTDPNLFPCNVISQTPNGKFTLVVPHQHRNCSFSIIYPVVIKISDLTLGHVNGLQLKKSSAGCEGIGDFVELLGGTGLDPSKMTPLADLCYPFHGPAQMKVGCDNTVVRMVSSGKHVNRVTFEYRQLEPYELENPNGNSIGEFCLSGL
The experiment in a line: activators of CRF receptor 2 with binding protein – uHTS hits, confirmation (AID 602473). The settings on record: read-out: EC50_Mean. In kind it is functional.

The target in assay [9] is T2, Corticotropin-releasing factor receptor 2/Corticotropin-releasing factor-binding protein. The experiment in a line: Dose Response confirmation of uHTS hits for small molecule antagonists of the CRF-binding protein and CRF-R2 receptor complex. The assay is classed as functional. To be noted: read-out: IC50_Mean.
Assay [10] in a line: OVCAR-3 cell viability loss – plate reader, dry powder samples, PAX8 inhibitor project, dose response (AID 743044). In kind it is functional, cell-based.
A further assay concerns the target Paired box protein Pax-8 (Homo sapiens, UniProt Q06710). The experiment in a line: PAX8 transcriptional activity inhibition in RMG-I – RMG-I cells, luciferase, cherry-pick, dose response (AID 687027).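 Also: luciferase reporter driven by Pax8 target thyroperoxidase promoter measured by SteadyGlo luminescence.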 In kind it is functional, cell-based.
Assay [11] in a line: OVCAR8 cell viability loss – plate reader, dry powder samples, PAX8 project, dose response (AID 743197). The assay is classed as functional, cell-based. To be noted: OVCAR-8.
The nature of assay [12]: toxicity toward HepG2 liver cells – cell-based, plate reader, cherry-pick, antagonist series, cytotoxicity control, dose response (AID 743416). In kind it is functional.
A short description of assay [13]: P. falciparum Dd2 growth inhibitors, dose response, SYBR Green, cherry-picked samples (AID 1159567). In kind it is functional, cell-based.

Each structure is given as a SMILES string. Activity calls are given as the source filed them.

The record followed here is ChEMBL document CHEMBL1201862, “PubChem BioAssay data set” (2004).

Luciferin 4-monooxygenase, sequence (P08659 whole entry): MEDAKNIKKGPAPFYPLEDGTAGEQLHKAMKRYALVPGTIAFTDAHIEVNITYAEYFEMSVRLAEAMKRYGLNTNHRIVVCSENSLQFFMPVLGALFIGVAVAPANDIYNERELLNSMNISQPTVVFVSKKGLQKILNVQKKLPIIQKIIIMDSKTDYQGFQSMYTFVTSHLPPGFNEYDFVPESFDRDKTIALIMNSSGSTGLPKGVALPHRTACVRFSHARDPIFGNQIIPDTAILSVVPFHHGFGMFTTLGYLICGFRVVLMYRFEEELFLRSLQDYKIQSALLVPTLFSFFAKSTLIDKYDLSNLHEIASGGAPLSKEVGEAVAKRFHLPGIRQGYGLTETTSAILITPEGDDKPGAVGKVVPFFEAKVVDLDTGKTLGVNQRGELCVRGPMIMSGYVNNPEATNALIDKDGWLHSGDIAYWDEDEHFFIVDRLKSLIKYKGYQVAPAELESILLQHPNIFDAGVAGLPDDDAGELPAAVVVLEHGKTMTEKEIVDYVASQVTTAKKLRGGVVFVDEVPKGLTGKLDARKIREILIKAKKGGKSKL
Paired box protein Pax-8, sequence (Q06710 whole entry): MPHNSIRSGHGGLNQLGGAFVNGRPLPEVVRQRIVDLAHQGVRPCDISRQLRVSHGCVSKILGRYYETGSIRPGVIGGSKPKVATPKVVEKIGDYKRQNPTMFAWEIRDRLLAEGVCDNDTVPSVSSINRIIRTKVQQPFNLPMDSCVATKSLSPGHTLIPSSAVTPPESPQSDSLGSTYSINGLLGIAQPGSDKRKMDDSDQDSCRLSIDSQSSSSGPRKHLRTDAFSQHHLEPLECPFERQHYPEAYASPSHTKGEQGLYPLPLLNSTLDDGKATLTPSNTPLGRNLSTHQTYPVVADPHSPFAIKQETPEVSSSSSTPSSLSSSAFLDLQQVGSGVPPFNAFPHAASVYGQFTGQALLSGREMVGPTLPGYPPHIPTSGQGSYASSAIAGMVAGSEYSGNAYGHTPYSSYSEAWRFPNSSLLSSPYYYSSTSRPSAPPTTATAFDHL

`CN1CCN(S(=O)(=O)c2cccc([N+](=O)[O-])c2)CC1`: the EC50 in [1] and in [2] was > 112 µM (not active) in each case. As to `Cc1nnc(NC(=O)c2ccc3ccccc3c2)o1`, the IC50 in “cells” is 1.64 µM (active). The AC50 is the concentration at which the activity in the assay is half-maximal. With `COC(=O)c1c(C(=O)OC)c(-c2ccc(F)cc2)n2c1CSC2`, the AC50 in [3] was 0.218 µM (active). Turning to `CC(C)OC(=O)c1cc(C(=O)c2cc(Cl)ccc2O)coc1=N`, the IC50 in the assay “cells” is 23.2 µM (active).

Regarding `CN(C)c1ccc(CN(C(=O)c2ccccc2Br)C2CCS(=O)(=O)C2)cc1` (stereo unspecified), in assay [3], the concentration at half-maximal activity (AC50) was 1.88 µM (active). For the compound `c1ccc2cc(OCCCn3ccnc3)ccc2c1`, the EC50 is > 60 µM (not active) in assay [4] and 1.01 µM (active) in assay [5]. In the assay “cells”, the IC50 was 42.5 µM (active). For the compound `COC(=O)c1cc(-c2cccs2)nc2ccccc12`, the IC50 in assay [6] was > 20 µM (inactive). For the compound `O=C(c1ccncc1)N1CCN(C(=O)c2cccc3ccccc23)CC1`, the EC50 is 16.6 µM (active) in assay [1] and > 112 µM (not active) in assay [2]. With `CCC(Oc1cc(Cl)ccc1Cl)C(=O)NNC(=O)CCC(=O)O` (stereo unspecified), the EC50 in assay [1] and in assay [2] was > 112 µM (not active) in each case.

With `COc1cccc(CNC(=O)c2cc(S(=O)(=O)N3CCCC3)cn2C)c1`, the EC50 in assay [1] and in [2] was > 112 µM (not active) in each case. With `COC(=O)[C@@H]1C[C@@]2(O)[C@H](O)[C@H](O)[C@H](O)C[C@H]2N1CC(c1ccccc1)c1ccccc1`, the AC50 on Cytochrome P450 3A4 is 20 µM (inconclusive).

Turning to `COC(=O)c1cccc(C23CC4(C2)[C@H](CN(Cc2ccc(C(F)(F)F)cc2)[C@@H]4c2ccccc2)C3c2ccc(C(F)(F)F)cc2)c1` (stereo partly specified), on Cytochrome P450 3A4, the AC50 is 12.6 µM (inconclusive). Turning to `Cc1ccc(C(=O)NCCN2C3=NC[C@H](Cc4ccc(O)cc4)N3C[C@H]2Cc2ccc(O)cc2)cc1Br`, the IC50 in assay [6] was > 20 µM (inactive).

For `COC(=O)c1ccc(=O)n(-c2ccc(OC)cc2)c1`, the EC50 in assay [1] and in assay [2] was > 112 µM (not active) in each case.

As for `COc1ccc(N2CCN(c3ccc(C(=O)O)cc3[N+](=O)[O-])CC2)cc1`, the AC50 in assay [3] was 5.03 µM (active). As to `Cc1ccccc1C(=O)NN1CC(C(=O)OCc2ccc(Cl)c(Cl)c2)CC1=O` (stereo unspecified), in the assay “cells”, the IC50 was 22.2 µM (active).

Regarding `COc1cc(CN2CCNC(=O)C2CC(=O)NCCCN2CCOCC2)cc(OC)c1` (stereo unspecified), the EC50 in assay [1] and in assay [2] was > 112 µM (not active) each time.

Consider `COC(=O)[C@@H]1C[C@H]2CC[C@H](O)C[C@H]2N1Cc1ccc(N2CCOCC2)cc1`, for which the AC50 at Cytochrome P450 3A4 is 20 µM (inconclusive). For `CCCC(=O)Nc1ccc(-c2csc(NNC(C)=O)n2)cc1`, the AC50 in assay [3] was 0.859 µM (active).

As for `CCN(CC(=O)Nc1ccccc1C(F)(F)F)C(=O)CCc1c(C)nc(O)c(C#N)c1C`, the figures for the EC50 in assay [1] and in [2] were 2.71 µM (active) and > 112 µM (not active), respectively. As for `Cc1c(N)cccc1N`, the AC50 at Cytochrome P450 3A4 is 15.8 µM (inconclusive). Regarding `Cc1nc2sc(C(c3ccccc3)N3CCN(c4ccccc4F)CC3)c(O)n2n1` (stereo unspecified), the EC50 in [1] and in assay [2] was > 112 µM (not active) throughout. As to `CCCCN(C)CCCNC(=O)c1cc(-c2cccs2)nc2ccccc12`, the IC50 in assay [6] is > 20 µM (inactive). In addition, the EC50 was > 60 µM (not active) in assay [4] and 0.183 µM (active) in assay [5]. On to `CCC(C)Nc1nc2c(c(=O)n(C)c(=O)n2C)n1Cc1ccc(F)cc1` (stereo unspecified), for which the AC50 in [3] is 2.09 µM (active). Consider `CC1=CC2=NC(=O)/C(=C\c3ccc(OC(=O)c4ccco4)cc3)C(=N)N2O1`, for which the IC50 in the assay “cells” was 21.8 µM (active). As to `CCC(C)[C@H]1CN=C(N)N1CCc1cc(C(F)(F)F)cc(C(F)(F)F)c1` (stereo partly specified), the IC50 in [6] was > 20 µM (inactive). Same read-out and setting: the same measure for `Nc1ncc([N+](=O)[O-])cc1S(=O)(=O)c1ccccc1`: > 20 µM (inactive); for `C#CCOCCOCCOCCNc1nc(N2CCN(C(=O)[C@H](CCCCN)n3cc([C@@H](N)[C@H](C)CC)nn3)CC2)nc(N2CCN(C(=O)[C@H](CCC(=O)O)n3cc([C@@H](N)CCCCN)nn3)CC2)n1`: > 20 µM (inactive). With `C[C@@H]1CCCCO[C@@H](CN(C)Cc2ccc(Cl)c(Cl)c2)[C@@H](C)CN([C@H](C)CO)C(=O)c2cc(NC(=O)CCC(F)(F)F)ccc2O1`, the half-maximal activity concentration (AC50) in assay [7] is 3.1 µM (active). On to `CN(C)c1ccc(/C(=N\O)c2ccccc2)cc1`, for which the EC50 in assay [8] is > 53 µM (inactive). The half-maximal activity concentration (AC50) in assay [3] is 1.64 µM (active). For the same compound, the IC50 in assay [9] was > 47.1 µM (inactive). On to `C[C@@H]1CN([C@@H](C)CO)C(=O)c2cccc(NS(=O)(=O)c3ccccc3)c2O[C@H]1CN(C)Cc1ccc(-c2ccccc2)cc1`, for which the concentration at half-maximal activity (AC50) in [7] was 1.39 µM (active). Same read-out and setting: the same measure for `C[C@H](CO)N1C[C@H](C)[C@H](CN(C)Cc2ccc(C(F)(F)F)cc2)Oc2ccc(NS(=O)(=O)c3ccc(Cl)cc3)cc2C1=O`: 4.5 µM (active).

In the case of `C[C@@H]1CN([C@@H](C)CO)C(=O)c2cccc(NC(=O)Nc3ccc(C(F)(F)F)cc3)c2O[C@H]1CN(C)C(=O)Nc1ccc(C(F)(F)F)cc1`, in [7], the half-maximal activity concentration (AC50) was 6.06 µM (active). Still for that read-out and setting: for `C[C@@H]1CCCCO[C@H](CN(C)C(=O)Nc2ccc3c(c2)OCO3)[C@@H](C)CN([C@H](C)CO)C(=O)c2cc(NC(=O)Nc3ccc(C(F)(F)F)cc3)ccc2O1` the value was 2.56 µM (active); for `C[C@@H]1CCCCO[C@@H](CN(C)Cc2ccc(Cl)c(Cl)c2)[C@@H](C)CN([C@H](C)CO)C(=O)c2cc(NC(=O)Nc3ccc(C(F)(F)F)cc3)ccc2O1`, 2.84 µM (active); for `COc1ccc(S(=O)(=O)Nc2ccc3c(c2)CC(=O)N([C@H](C)CO)C[C@@H](C)[C@@H](CN(C)Cc2ccc(Cl)c(Cl)c2)O3)cc1`, 3.78 µM (active). For the compound `C[C@H]1CN([C@@H](C)CO)C(=O)Cc2cc(NC(=O)NC3CCCCC3)ccc2O[C@@H]1CN(C)Cc1ccc(Cl)c(Cl)c1`, in assay [7], the AC50 was 7.18 µM (active).

For the compound `C[C@@H]1CN([C@H](C)CO)C(=O)c2cc(NC(=O)Nc3cccc4ccccc34)ccc2O[C@@H]1CN(C)C(=O)Nc1cccc2ccccc12`, the AC50 in [10] is 49.7 µM (active); on Paired box protein Pax-8, 6.15 µM (active); in [11] it was 46.1 µM (active). Consider `C[C@@H]1CCCCO[C@H](CN(C)Cc2ccncc2)[C@H](C)CN([C@H](C)CO)C(=O)c2cc(NC(=O)Nc3ccc(C(F)(F)F)cc3)ccc2O1`, for which the half-maximal activity concentration (AC50) is 35.4 µM (active) in assay [10] and 7.43 µM (active) at Paired box protein Pax-8. In the case of `COCC#Cc1ccc2c(c1)O[C@H](CN(C)S(=O)(=O)c1cccc(F)c1)[C@@H](C)CN([C@H](C)CO)S2(=O)=O`, the AC50 in [12] is > 52 µM (inactive).

For the compound `CCC(=O)N1CC2(C1)CN(C(=O)Nc1ccccc1F)[C@H](CO)c1[nH]c3cc(OC)ccc3c12`, the half-maximal activity concentration (AC50) in assay [13] was 15.9 µM (active). As to `COc1ccccc1S(=O)(=O)N(C)C[C@@H]1Oc2cc(C#CCC(C)C)ccc2S(=O)(=O)N([C@@H](C)CO)C[C@@H]1C`, the half-maximal activity concentration (AC50) in assay [13] is 3.17 µM (active). Turning to `COc1ccc(NC(=O)N(C)C[C@@H]2Oc3cc(-c4ccc(C)cc4)ccc3S(=O)(=O)N([C@H](C)CO)C[C@H]2C)cc1`, the AC50 in assay [13] is 3.38 µM (active). `Cc1cc(O)c(C=O)c2c1C(=O)Oc1c(C)c(O)c3c(c1O2)C(O)OC3=O` (stereo unspecified) [NORSTICTIC ACID]: on Cytochrome P450 3A4, the half-maximal activity concentration (AC50) was 39.8 µM (inconclusive).
